Reference: paper PMC4809498, “Artonin E Induces Apoptosis via Mitochondrial Dysregulation in SKOV-3 Ovarian Cancer Cells” (PLoS ONE, 2016)
In brackets after ≈: the same amount, converted by molar mass.

Legend:
SKOV-3 cells [1] = assay: MTT cell viability assay, SKOV-3; format: cell-based, human; conditions: SKOV-3, MTT; for IC50: Homo sapiens
Description: (§1) Metastatic ovarian adenocarcinoma (SKOV-3) and normal Chinese hamster ovary (CHO) cell lines were originally obtained from the American Type Culture Collection (ATCC; Manassas, VA). SKOV-3 cells were cultured in McCoy’s 5A medium and CHO cells were cultured in F12K medium. A human periodontal ligament fibroblast cell line was purchased from Lonza, USA and maintained in stroma cell basal medium. T1074 (normal immortalized human ovarian surface epithelial cell line) was originally purchased from Applied Biological Materials (abm®) Canada and cultured in Prigrow 1 medium.
(§2) The inhibitory effects of artonin E and two positive controls paclitaxel and carboplatin were examined by MTT assay. Cells at a density of 5×10^3cells/well were placed in a 96-well plate and left for 24 h to attach. The attached cells were exposed to artonin E, paclitaxel, and carboplatin at different concentrations and incubated for 24, 48, and 72 h. Subsequently, 20 μL of 5 mg/mL MTT solution was added after drug treatment and the resulting mixture was incubated for 4 h to form purple formazan. Afterward, 100 μL of dimethyl sulfoxide (DMSO) was transferred into each well to dissolve the purple formazan, and results were measured using a microplate reader (Tecan Infinite M 200 PRO, Männedorf, Switzerland) at an absorbance of 570 nm. The half-maximal concentrations that caused cell growth inhibition (IC50 values) were obtained from the MTT viability growth curve.

T1074 cells = assay: MTT cell viability assay, T1074; format: cell-based, human; conditions: Homo sapiens
Description: as §1, §2

SKOV-3 cells [2] = assay: Annexin V-FITC/PI flow cytometry; format: cell-based, human; conditions: SKOV-3, 8 μg/mL
Description: An Annexin V assay was performed using a BD Pharmingen^TM Annexin V-FITC Apoptosis Detection Kit (ApoAlert Annexin V, Clontech, California, USA). The cells were placed in a 6-well plate and left overnight to attach. Cells were then treated with 8 μg/mL of artonin E for 24, 48, and 72h. The treated cells were trypsinized and centrifuged at 1,500 rpm for 10 min to remove residual media. Subsequently, 1X binding buffer was added to rinse the fresh pellets before their resuspension in 200 μL of binding buffer. The cells were then mixed with 5 μL of Annexin V and 10 μL of PI and incubated for 15 min in the dark at room temperature. The prepared cells were immediately analyzed using flow cytometric analysis (FACS Canto 11 Becton-Dickson). Then, 300 μL of binding buffer was added to each sample to adjust the reaction volume to at least 500 μL for the flow cytometric analysis. The cells treated with DMSO (0.1%, v/v) were used as control.

SKOV-3 cells [3] = assay: Multiparametric Cytotoxicity 3 high-content screening; format: cell-based, human; conditions: SKOV-3, 8 μg/mL
Description: Cellomics Multiparameter Cytotoxicity 3 kit (Thermo Scientific^TM, Pittsburgh, PA, USA) was used to perform simultaneous detection of the crucial apoptotic events in SKOV-3 cells treated with artonin E. Briefly, SKOV-3 cells were seeded at a density of 5000 cells/well in a black flat-bottomed 96-well plates (PerkinElmer, Inc., Wellsley, MA, USA) and left overnight to attach. The attached cells were treated with 8 μg/mL artonin E for 24, 48, and 72 h. The treated cells were then exposed to 50 μL of live cell staining solution for 30 min. The excess medium and live cell staining solution were gently removed and the cells were then fixed with 16% paraformaldehyde. After fixation, the cells were exposed with permeabilization buffer followed by blocking buffer for 15 min at room temperature. Primary Cytochrome C antibodies and secondary DyLight 649 conjugated goat antimouse IgG were added and allowed to interact for 1 h each. Hoechst 33342 dye was used to stain nuclei in SKOV-3 cells. Stained SKOV-3 cells in the 96-well plates were analyzed using ArrayScan high-content screening (HCS) system. All experiments were conducted in triplicates and experiments were repeated twice.

caspase-3 = assay: Colorimetric caspase-3 activation assay; format: cell-based, human; conditions: SKOV-3, 8 μg/mL, 48 and 72 h treatment
Description: (§3) Calorimetric assay of the activation of caspases-3, -8, and -9 was conducted using R & D system kit, USA. Briefly, in a T75cm^2 flask 90% confluent SKOV-3 cells were induced with artonin E for 24, 48, and 72 h. The induced cells were trypsinized and centrifuged at 1,800 rpm for 10 min. The fresh pellets were washed with cold PBS and immediately lysed with protein lysis buffer. The cell lysate was then kept on ice for 10 min, centrifuged at 10,000 g for 15 min, and transferred into a new tube. The fresh cell lysate (50 μL), which contained 100–200 μg of protein, was added into a 96-well plate in triplicate. Fifty microliters of reaction buffer and 5 μL of caspase were then transferred into each designated well before incubating the plate in a CO2 incubator at 37°C for 2 h. A microplate reader (Tecan Infinite M 200 PRO, Männedorf, Switzerland) was used for analysis at a wavelength of 405 nm.

caspase-8 = assay: Colorimetric caspase-8 activation assay; format: cell-based, human; conditions: SKOV-3, 8 μg/mL, 48 and 72 h treatment
Description: as §3

HSP70 = assay: Western blot, HSP70; format: cell-based, human; conditions: SKOV-3, 8 μg/mL, 72 h after treatment
Description: (§4) SKOV-3 cells were plated in a 75cm^2 culture flask and exposed to artonin E for 24, 48, and 72 h. Lysis buffer (50 mM Tris–HCl, pH 8.0; 120 mM NaCl, 0.5% NP-40; and 1 mM PMSF) was used to extract the total protein. Protein concentration was determined using a BCA protein assay reagent kit (Bio-Rad, USA). Equal amounts of protein (40 μg) extract were subjected to SDS-PAGE and electroblotted onto a polyvinylidenedifluoride membrane (Bio-Rad). Blots were then blocked with 5% non-fat milk in TBS-Tween buffer 7 (0.12 M Tris-base, 1.5 M NaCl, and 0.1% Tween 20) for 1 h at room temperature. After incubating with the appropriate primary antibody overnight at 4°C, the blots were washed and then incubated with horseradish peroxidase conjugated secondary antibody for 1 h at room temperature. The protein bands were detected using pico or femto chemiluminescence (ECL system) and visualized using a UV gel documentation system. The subsequent primary antibodies, which include those for β-actin (1:10,000), Bax (1:10,000), Bcl-2 (1:10,000), HSP-70 (1:10,000), survivin (1:10,000),caspase -3 (1:10,000), caspase -8 (1:10,000), caspase -9 (1;10,000) and cytochrome c (1:200) were purchased from Abcam, Cambridge, United Kingdom.

survivin = assay: Western blot, survivin; format: cell-based, human; conditions: SKOV-3, 8 μg/mL, 72 h after treatment
Description: as §4

[4] = set-up: method as in PMID 17855020; conditions: cited from earlier work

`CC(C)=CCc1c(-c2cc(O)c(O)cc2O)oc2c3c(cc(O)c2c1=O)OC(C)(C)C=C3` [Artonin E, artonin E] gave an IC50 (SKOV-3 cells [1]; SK-OV-3, 24 h, 24 h treatment) of 12.8 ± 0.28 µg/mL (≈ 29.4 µM), an IC50 (SKOV-3 cells [1]; SK-OV-3, 48 h, 48 h treatment) of 8 µg/mL (≈ 18.3 µM) and an IC50 (SKOV-3 cells [1]; SK-OV-3, 72 h, 72 h treatment) of 6.5 ± 0.5 µg/mL (≈ 14.9 µM). For the same compound, the IC50 values (SKOV-3 cells [1]; 48 h treatment) was 8.8 ± 0.29 µg/mL (≈ 20.2 µM), the IC50 (T1074 cells; 24 h treatment) was 44.8 ± 0.76 µg/mL (≈ 103 µM) and the IC50 (T1074 cells; 48 h treatment) was 37.5 ± 0.53 µg/mL (≈ 85.9 µM). The IC50 (T1074 cells; 72 h treatment) was 32.5 ± 0.5 µg/mL (≈ 74.5 µM), the “cells at the early stage of apoptosis” value (SKOV-3 cells [2]; 24 h post treatment) was “more than 40%” and the “cells at the late stage of apoptosis” value (SKOV-3 cells [2]; 48 h post treatment) was “more than 40%”. The “cytochrome c fluorescence intensities” value (SKOV-3 cells [3]; prolonged treatment periods) was “increase”, the cell permeability (SKOV-3 cells [3]; time-dependent (24, 48, 72 h)) was “marked increased” and the “green fluorescence intensity of MMP” value (SKOV-3 cells [3]; time-dependent (24, 48, 72 h)) was “significant (p<0.05) reduction”. The “activation of caspase-3” value (caspase-3) was “significantly (p<0.05)elevated”, the “activation of caspase-8” value (caspase-8) was “significantly (p<0.05)elevated” and the “level of HSP70 expression” value (HSP70) was “reduced significantly”. The “level of survivin expression” value (survivin) was “reduced significantly” and the “radical scavenging against the DPPH radical” value [4] was “strong radical scavenging properties”.
